Patent publication US20200270588A1, “GLUCOSYL TRANSFERASE POLYPEPTIDES AND METHODS OF USE” (Syngenta Participations AG, priority 2017, published 2020)
Where “and” joins values, the source holds several entries; their conditions need not be identical. Equal values may be shown once.

Legend:
[1] = molecular target: T1, SEQ ID NO 20, mutant of Zea mays bx9 glucosyl transferase (Zea mays, UniProt B4G072, A281K/A334K/F21Y/L194V/M279F/S117V); type: biochemical; conditions: lower block, concentration printed only in upper block: V 0.300, VII 0.210; IV, VIII, XI, XXI, XX, XVIII, XVI, XV, XIV 0.200; others 1.000 mM
T1 construct: His tag (C); made in house
Description: Glucosyl transferase activity is assayed via measurement of acceptor substrate-dependent production of UDP from ultrapure UDP-glucose using the Promega UDP-Glo™ method and according to the manufacturer's instructions. Assays are run in 96 well microtiter plates.
Enzyme, typically at a stock concentration of ˜2 mg/ml is diluted to an appropriate concentration in 50 mM K^+ Hepes buffer at pH7.5 containing 0.5 mg/mL bovine serum albumin (BSA) and 5 ul aliquots of this diluted enzyme added to each well of a Perkin Elmer white ½ area 96 well plate. […] Assays are run for an appropriate time (usually 10 to 60 min) so that the amount of UDP formed lies within the most nearly linear part of the UDP standard curve and are stopped with the addition and mixing of 25 ul UDP-Glo™ detection reagent (prepared as described below). Plates are then incubated at room temperature for 60 minutes and then read in a luminescence plate reader (Perkin Elmer Envision 2130 Multilabel Reader). A UDP standard curve is run alongside each set of assays and reagent blank control assays run with DMSO in place of test herbicide.
The UDP-Glo™ reagents are made up and used according to the manufacturer's instructions. Thus, Nucleotide Detection Buffer and ATP are combined to make nucleotide detection reagent (NDR) dispensed into aliquots and frozen to be freshly thawed before use.
Km and kcat values in respect of UDP-glucose are derived by carrying out experiments to measure initial rates over a suitable range of concentrations of UDP glucose out at a fixed near saturating concentration of acceptor substrate. Best fit values of kcat, Km and kcat/Km are obtained by direct fitting of the data to the Michaelis-Menten equation using Graphpad Prism™ software.
All of these proteins were C-terminally his-tagged, expressed and purified as described in Example 1. Assays were run and analyzed as described in example 1.

wild type tobacco plants = assay: Glass house spray test on tobacco, percent damage; type: in vivo; conditions: 14 DAT
Description: Once rooted, plantlets are transferred from agar and potted into 50% peat, 50% John Innes Soil No. 3 with slow-release fertilizer in 3 inch round pots and left regularly watered to establish for 8-12d in the glass house. Glass house conditions are about 24-27° C. day; 18-21° C. night and approximately a 14h photoperiod. Humidity is adjusted to ˜65% and light levels used are up to 2000 μmol/m^2 at bench level.
Three transgenic populations of about forty tobacco plants and comprising, a glucosyl transferase gene encoding either zmBX8 (SEQ ID NO 2) or zmBX9 (SEQ ID NO 1) were thus produced. A sub-set of about 30 plants were selected on the basis of similar size from each population for spray testing. The plants were then sprayed with 30 g/ha of Compound VI. VI was mixed in water with 0.2-0.25% X-77 surfactant and sprayed from a boom on a suitable track sprayer moving at 2 mph with the nozzle about 2 inches from the plant tops. Spray volume was 200 l/ha. Plants were assessed for damage and scored at 7 and 14 days after treatment (DAT).
In a further example, Zea mays BX8 or BX9 or orthologues of BX8/9, are altered to carry amino acid variants at various positions which increase tolerance to the alcohol and aminal PSII herbicides as described in the example above. DNA sequences that encode these polypeptides (optimized for tobacco or, optionally, codon optimized according to a target crop such as soybean) were prepared for tobacco transformation as described in example 10. […] Transgenic tobacco populations expressing SEQ ID NOs 16 and 17 were generated alongside a population expressing the parental zmBX9 sequence (SEQ ID 1). These populations were sprayed with herbicide V and VI at rates of 200 and 500 g/ha. Plants were assessed for damage and scored at 14 days after treatment (DAT). The results are depicted in Table 19 and also in FIG. 6.

[2] = molecular target: T2, SEQ ID 36, mutant bx-type glucosyl transferase (Zea mays, UniProt Q8W2B7, M283F/S121V/S338K); assay: LC/MS glucosyl transferase assay (glucoside peak area), purified enzyme; type: biochemical; conditions: about 60 min, ~15 pmol enzyme, relative quantification only
T2 construct: 36; 6.03E+06; 6.40E+09; 1.75E+08; His tag; made in house
Description: (§1) In an alternative method for assaying the various enzymes, the test glucosyl transferase enzyme is reacted with substrates exactly as above except that the assay is stopped by adding an equal volume of acetonitrile. Alternatively 50 or 100 μl samples from assay reactions are added to 500 μl ethyl acetate to stop the reaction. In this case samples are then vortexed and 400 μl of the ethyl acetate partition removed, dried down, and resuspended in 100 μl 80:20 acetonitrile/water. The formation of product gluco side and/or disappearance of substrate test herbicide is then monitored directly by LC/MS. Samples are analyzed by LC-MS using an Agilent 1290 liquid chromatography system and Thermo Q-Exactive mass spectrometer. The chromatography is achieved on a Waters Acquity C18 BEH (50×2.1 mm) 1.7 μm particle size column, using a 6 minute gradient run of Water (0.2% formic acid) and Acetonitrile. The Q-Exactive is operated in positive ionisation electrospray mode, using Full scan-AIF mode, at 35,000 resolution, between 100-800 m/z. All analytes are identified from the full scan data to within at least 5 ppm accuracy of their predicted pseudo-molecular ion [M+H]^+ m/z value. In order to obtain quantitative data standard curves are run using herbicides and herbicide glucosides synthesized as standards. Where these synthetic glucosides were not available the LC/MS assay could only be used to provide relative data.
(§2) DNA sequences, optimized for E. coli codon usage, were cloned, expressed and the various proteins purified and assayed as described in the foregoing examples. Using the UDP assay (as described in examples 1, 3 and 6) the data obtained from the Zea mays bx8 w/t protein and its variants was noisy due to relatively high background rates in DMSO reagent blanks. The values reported in the table 15 were thus monitored by LC/MS as described in example 1.

[3] = molecular target: T3, SEQ ID 34, mutant bx-type glucosyl transferase (Zea mays, UniProt Q8W2B7, V367W); assay: as above; type: biochemical; conditions: about 60 min, ~15 pmol enzyme, relative quantification only
T3 construct: 34; 2.45E+05; 2.17E+07; 5.21E+06; His tag; made in house
Description: as §1, §2

[4] = molecular target: T4, SEQ ID 32, mutant bx-type glucosyl transferase (Zea mays, UniProt Q8W2B7, M283F); assay: as above; type: biochemical; conditions: about 60 min, ~15 pmol enzyme, relative quantification only
T4 construct: 32; 9.98E+05; 1.75E+08; 8.33E+06; His tag; made in house
Description: as §1, §2

T1 sequence (B4G072 whole entry F21Y/S117V/L194V/M279F/A281K/A334K): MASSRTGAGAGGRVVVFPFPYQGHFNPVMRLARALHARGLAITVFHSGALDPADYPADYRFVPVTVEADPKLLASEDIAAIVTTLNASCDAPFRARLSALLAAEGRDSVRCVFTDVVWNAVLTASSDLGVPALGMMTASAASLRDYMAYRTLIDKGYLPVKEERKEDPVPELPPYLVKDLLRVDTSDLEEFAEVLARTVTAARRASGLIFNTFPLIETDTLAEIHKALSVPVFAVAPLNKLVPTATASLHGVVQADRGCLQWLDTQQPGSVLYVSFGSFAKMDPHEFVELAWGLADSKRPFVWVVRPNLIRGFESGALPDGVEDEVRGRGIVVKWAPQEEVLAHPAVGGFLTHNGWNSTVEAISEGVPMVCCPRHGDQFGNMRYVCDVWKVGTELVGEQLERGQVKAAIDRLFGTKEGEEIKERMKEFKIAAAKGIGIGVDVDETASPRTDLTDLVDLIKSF
T2 sequence (Q8W2B7 whole entry S121V/M283F/S338K): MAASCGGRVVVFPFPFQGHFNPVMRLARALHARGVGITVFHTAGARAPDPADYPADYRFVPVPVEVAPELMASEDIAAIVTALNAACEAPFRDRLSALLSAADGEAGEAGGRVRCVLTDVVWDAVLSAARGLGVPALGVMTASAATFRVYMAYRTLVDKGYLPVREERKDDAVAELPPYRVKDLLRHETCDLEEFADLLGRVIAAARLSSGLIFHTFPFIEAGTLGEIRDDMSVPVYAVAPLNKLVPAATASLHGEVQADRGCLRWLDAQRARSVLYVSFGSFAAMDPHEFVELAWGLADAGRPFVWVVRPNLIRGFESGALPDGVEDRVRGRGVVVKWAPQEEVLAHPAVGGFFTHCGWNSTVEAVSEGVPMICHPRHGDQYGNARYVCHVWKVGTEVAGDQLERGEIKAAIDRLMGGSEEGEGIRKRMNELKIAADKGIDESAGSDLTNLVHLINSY
T4 sequence (Q8W2B7 whole entry M283F): as the sequence (Q8W2B7 whole entry S121V/M283F/S338K) above, with V121S, K338S counted along it
T3 sequence (Q8W2B7 whole entry V367W): as the sequence (Q8W2B7 whole entry S121V/M283F/S338K) above, with V121S, F283M, K338S, V367W counted along it

Row | Structure (SMILES) | Activity [1] | percent damage (wild type tobacco plants; 200 gai/ha V, WT tobacco plants 1-9) | percent damage (wild type tobacco plants; 500 gai/ha V, WT tobacco plants 1-9) | integrated peak area of beta-glucoside product [2] | integrated peak area of beta-glucoside product [3] | integrated peak area of beta-glucoside product [4] | percent damage (wild type tobacco plants; 30 g/ha compound VI, plants A, B, C) | percent damage (wild type tobacco plants; 500 gai/ha VI, WT tobacco plants 1-9)
1 | Cc1cnc(N2C(=O)N(C)CC2O)cc1C(F)(F)F (stereo not shown) [XVIII] | 1.141 pmol/sec/pmol enzyme | – | – | – | – | – | – | –
2 | CN1CC(O)N(c2cc(C(F)(F)F)ccn2)C1=O (stereo not shown) [Compound V] | 1.889 pmol/sec/pmol enzyme | 100% | 100% | 1.75E+08 and 1.96E+08 | 5.21E+06 and 4.16E+06 | 8.33E+06 and 6.18E+06 | – | –
3 | CN1CC(O)N(c2cc(C(F)(F)F)c(Cl)cn2)C1=O (stereo not shown) [XI] | 1.046 pmol/sec/pmol enzyme | – | – | 6.03E+06 and 6.40E+06 | 2.45E+05 | 9.98E+05 and 1.08E+06 | – | –
4 | CON1C(=O)N(c2cc(C(F)(F)F)ccn2)C(O)[C@@H]1C (stereo partly shown) [Compound VI] | – | – | – | 6.40E+09 and 6.87E+09 | 2.17E+07 and 2.00E+07 | 1.75E+08 and 1.89E+08 | 75% and 95% and 85% | 100%
